Tests used:
[1] = system: patients; test: Clinical studies of Blinatumomab in B-NHL and B-precursor ALL; format: in vivo, human
From the text: Various clinical studies evaluating the safety and efficacy of Blinatumomab have been conducted both in B-NHL (Bargou et al. Science. 2008; 321:974-7) and B-precursor ALL (Topp et al. J Clin Oncol. 2011; 29:2493-8). […] These studies established clinical proof of concept for the high therapeutic potential of the bispecific single-chain antibody format in general and of Blinatumomab in special and validated its further development in B-NHL, ALL and CLL. Throughout these studies in B-NHL and B-precursor ALL several pharmacodynamic markers were assessed. […] It was characterized by a swift redistribution after start of infusion and any dose step, i.e. a fast disappearance of circulating T cells within the first 6-12 hours and a subsequent reappearance during the following 2-7 days where high initial B cell-counts correlated with decelerated kinetics of T cell-reappearance (FIG. 1A). This course seemed to be triggered by any significant dose changes of Blinatumomab rather than absolute serum concentrations. In addition, T cell-adhesiveness was measured throughout treatment week 1 by analyzing binding of soluble ICAM-1-Fc fusion proteins to LFA-1 on T cells. […] This finding coincided with T cell-redistribution and supported the concept of Blinatumomab-induced T cell-adhesion to endothelium during redistribution.

[2] = system: HUVEC; test: In vitro flow chamber: T cell-rolling and adhesion on HUVEC, short-term conditions; format: cell-based, human
Protocol: Human brain microvascular endothelial cells (HBMEC) (#1000, Sciencell Research Laboratories) or human umbilical vein endothelial cells (HUVEC) (#C-12200, Promocell) were used as endothelial cell-model. Cryopreserved HBMEC at passage 1 (>5×10^5 cells/ml) were first cultivated in fibronectin-coated Nunclon-treated 75 cm^2 cell culture flasks (#156499, Nunc) at 37° C. and 5% CO2 in a Heraeus Cytoperm 2 (Thermo Scientific) according to the manufacturer's instructions. Sub-cultivation of HBMEC was done with the Detach Kit (#C-41200, Promocell) consisting of HEPES-buffered balanced salt solution (#C-40000, Promocell), trypsin-EDTA solution (0.04%/0.03%) (#C-41000, Promocell) and trypsin neutralization solution (TNS, #C-41100, Promocell). Briefly, the medium was aspirated from the HBMEC-layer and cells were washed with 2 ml of HEPES-buffered balanced salt solution. Addition of 2 ml of trypsin-EDTA solution for 1-5 min at room temperature led to detachment of HBMEC from the flask bottom. Inactivation of trypsin-EDTA solution was performed by addition of 2 ml of trypsin neutralization solution to the cell suspension. Cells were centrifuged at 300 g for 4 min in a Heraeus Megafuge 40 (Thermo Scientific) and seeded at a cell density of 5×10^5 cells per gelatin-coated 75 cm^2 cell culture flask (#L7230, Biochrom). […]

time to return of LFA-1 binding affinity to baseline ([1]; after peak): ≤ 5 days
time to peak of increased LFA-1 binding affinity to ICAM-1 ([1]; binding of soluble ICAM-1-Fc to LFA-1 on T cells, treatment week 1): ≤ 48 h
Substance: Blinatumomab: recombinant CD19×CD3 bispecific scFv antibody consisting of four immunoglobulin variable domains assembled into a single polypeptide chain
time of disappearance of circulating T cells after start of infusion and any dose step ([1]; T cell-redistribution, irrespective of dose level): 6 to 12 h
time of reappearance of circulating T cells ([1]; following T cell disappearance): 2 to 7 days
mean rolling velocity±SD ([2]; T cells pre-incubated with 10 ng/ml Blinatumomab for 45 min, short-term (45 sec), 1 dyn/cm^2, control −AMG 103 283±82): 237±45 μm/sec
increase of number of T cells firmly adhering to HUVEC ([2]; pre-incubation with 10 ng/ml Blinatumomab, short-term conditions, vs −AMG 103): 2.6 fold

— US9688760B2, “Anti-leukocyte adhesion for the mitigation of potential adverse events caused by CD3-specific binding domains” (AMGEN RESEARCH (MUNICH) GMBH, priority 2013, dated 2017)
